These results are taken from paper PMC8070284, “Pharmacokinetic Characterization of LW6, a Novel Hypoxia-Inducible Factor-1α (HIF-1α) Inhibitor in Mice” (Molecules, 2021).

Read-outs that look alike come from different tables or passages of the source. Bounds are passed on as bounds.

The nature of one series: in vitro. The settings on record: human.
Series [1] in a line: Metabolic stability in pooled mouse liver microsomes. Format: in vitro ADME. As to the method: LW6 (1 µM) was incubated with pooled mouse liver microsomes (0.5 mg/mL) in the absence or presence of NADPH (1 mM) to determine its conversion to APA. LW6 was degraded slowly in the absence or presence of NADPH, with 63% or 65% remaining after 60 min microsomal incubations, respectively (Figure 3A). […] APA, following its formation, gradually disappeared from the microsomal incubation media only in the presence of NAPDH (Figure 3A). To determine whether APA was metabolized by cytochrome P450 (CYP450), APA (1 µM) also was incubated with pooled male mouse liver microsomes (0.5 mg/mL) in the absence or presence of NADPH (1 mM).
All incubations were conducted in triplicate at 37 °C in eight-well tube strips placed in an 8 × 12 rack (VWR, Emeryville, CA). Incubation mixtures consisted of mouse liver microsomes (0.5 mg protein/mL), NADPH (1 mM), and LW6 (1 µM) or APA (1 µM) in 0.1 M potassium phosphate buffer (pH 7.4). The final incubation volume was 160 µL and the final acetonitrile content was 1%. Samples were preincubated for 5 min at 37 °C before adding LW6 or APA to initiate the reaction. The reaction was terminated at 0, 5, 15, 30, and 60 min by the addition of 320 µL of ice-cold acetonitrile containing the internal standard. Incubation mixtures were then centrifuged at 910× g for 10 min and the supernatant was analyzed by the LC-ESI/MS/MS method described below for quantitation of LW6 and APA.

In the next series the test system is HIF-1α. The settings on record: cited from earlier work.
A short description of a further series: Stability in mouse serum. The format is in vitro ADME. As to the method: All incubations were conducted in triplicate at 37 °C in eight-well tube strips placed in an 8 × 12 rack (VWR, Emeryville, CA, USA) with 50 µL of mouse serum in each tube. LW6 (1 mM) dissolved in acetonitrile was added to a final concentration of […] (1% acetonitrile) to initiate the study. The reaction was terminated at 0, 1, 2, 4, and 6 h by adding 150 µL of ice-cold acetonitrile containing the internal standard. The eight-well cluster tube plate was centrifuged at 910× g for 10 min and the supernatant was analyzed by the LC-ESI/MS/MS method described below for quantitation of LW6 and APA.

The nature of series [2]: Stability in phosphate buffer at physiological pH. The format is physicochemical. The settings on record: data not shown.
The nature of series [3]: In vivo plasma pharmacokinetics after a single i.v. or p.o. dose in male ICR mice. More on the design: species or system mouse. To be noted: for half-life / Vd: male, ICR; for half-life / Vd / MRT / clearance: iv; for Cmax / Tmax: po. The text has this: The animal experiments conducted in this study were approved by the Institutional Animal Care and Use Committee of the Korea Research Institute of Bioscience and Biotechnology (Chung-buk, Korea; KRIBB-AEC-15005, 9 January 2015) and performed in compliance with the National Institutes of Health Guidelines for the care and use of laboratory animals and Korean national laws for ethical conduct in the care and use of animals. Specific pathogen-free (SPF) male ICR mice (8 weeks old) were purchased from Koatech Co. (Pyeongtaek, Kyonggi, Republic of Korea) and maintained in an SPF environment at a temperature of 22 ± 2 °C with a 12-h light/dark cycle and a relative humidity of 50 ± 10%. Food and water were given ad libitum. Animals were allowed to acclimatize to the testing facility for a week before being used in the study. Animal group for oral administration was fasted overnight before the study and fed again 4 h after dosing. Mice were given a single dose of test substance intravenously (i.v.) via tail vein injection or orally (p.o.) by a disposable syringe with an oral zonde. While LW6 was administered i.v. (5 mg/kg) or p.o. (5 mg/kg), APA was administered only i.v. (5 mg/kg). The solutions were prepared in dimethylacetamide/Cremophor EL/20% v/v 2-hydroxypropyl β-cyclodextrin in de-ionized water (1/1/3 v/v; i.v. or p.o. for LW6) or ethanol/20% v/v 2-hydroxypropyl β-cyclodextrin in de-ionized water (1/9 v/v; i.v. for APA) and administered at a dose volume of 5 mL/kg for both i.v. and p.o. Blood samples were collected via saphenous vein without the use of anesthesia as described in the earlier methodology study at the time points including 0, 0.25, 0.5, 0.75, 1, 2, 4, 6, 8, and 24 h after oral administration or 0, 0.083, 0.167, 0.25, 0.5, 1, 2, 4, 6, 8, and 24 h after intravenous administration. These samples were collected into Microvette® capillary tubes at predetermined time points. The blood samples were centrifuged under refrigeration at 12,000× g for 3 min and then kept frozen at −20 °C until analysis.
Plasma samples were prepared for analysis by the protein precipitation method. An aliquot of 15 µL from each plasma sample was transferred to a PCR tube (Axygen, Union City, CA, USA). Four volumes of acetonitrile containing the analytical internal standard (IS) 4-methylumbelliferone were added and the resulting mixture was vortexed for 10 min on a Multi-Tube vortexer (VWR International, West Chester, PA, USA), and sonicated for 30 min at room temperature. The tube was centrifuged at 12,000× g for 10 min and the supernatant was analyzed for the test substance. Sample analysis was performed by 3200 Q TRAP LC-MS/MS system (Applied Biosystems, Concord, ON, Canada) in a negative MRM mode. The analytical methods are described below.
Pharmacokinetic parameters were calculated by noncompartmental analysis of the plasma concentration-time profiles using Kinetica^TM 4.4.1 (Thermo Fisher Scientific, Inc., Woburn, MA, USA). The areas under the plasma concentration–time curves (AUC) were calculated by the linear-trapezoidal method. Total body clearance (CL) was calculated as follows: CL = Dose/AUC0–inf. Terminal elimination half-life (t1/2) was calculated by the following equation: t1/2 = 0.693/λz, where λz is the terminal disposition rate constant. Volume of distribution at steady state (Vss) was calculated as follows: Vss = CL × AUMC0–inf/AUC0–inf, where AUMC0–inf is the area under the first moment of the plasma concentration-time curve extrapolated to infinity. Oral bioavailability (F) was calculated using the following equation:(1) F=(AUCpo/Dosepo)/(AUCiv/Doseiv)×100
Fraction of dose converted to a systemically available metabolite was calculated by the following equation, where D is the dose of the parent, AUC(m) is the area under the curve of metabolite, and CL(m) is the systemic clearance of metabolite:(2) % of dose = AUC(m) ×CL(m)/D×parent mol. wt./metabolite mol. wt. ×100 […]

For another series, the system named is HCT116 xenograft. As to the kind of experiment: HCT116 xenograft model study. Format: in vivo. To be noted: data not shown.
Setting [4] is: Caco-2, pH 7.4, Typical apparent permeability coefficient (Papp) values.
Where [5] appears, read: mouse, plasma, 5 mg/kg, plasma, analyte = label, after single i.v. dose of LW6 5 mg/kg, male ICR mice, read-out: t1/2 (terminal) (converted).
[6] abbreviates: mouse, plasma, analyte = label, after single i.v. dose of LW6 5 mg/kg, male ICR mice.
Where [7] appears, read: mouse, plasma, analyte = label, after single p.o. dose of LW6 5 mg/kg, male ICR mice.
Where [8] appears, read: mouse, plasma, analyte = label, after single p.o. dose of LW6 5 mg/kg, male ICR mice, n = 5.
The mark [9] stands for this setting: plasma, analyte = label, after single i.v. dose of LW6 5 mg/kg, male ICR mice.
The mark [10] stands for this setting: plasma, analyte = label, after single p.o. dose of LW6 5 mg/kg, male ICR mice.
Where [11] appears, read: single i.v. dose of APA 5 mg/kg, male ICR mice, n = 5.

Turning to `CNC(=C[N+](=O)[O-])NCCSCc1ccc(CN(C)C)o1` [Ranitidine, ranitidine], the Papp at 120 min, 5 µM was 0.8 ×10⁻⁶ cm/s in “in vitro” (Caco-2, pH 7.4, Papp) and under 2 ×10⁻⁶ cm/s in the series “in vitro” (setting [4]).
As for `COC(=O)c1ccc(O)c(NC(=O)COc2ccc(C34CC5CC(CC(C5)C3)C4)cc2)c1` [LW6], the “LW6 remaining after 60 min microsomal incubation” value came to 63% in series [1] (1 µM, 0.5 mg/mL microsomes, absence of NADPH) and 65% in series [1] (1 µM, 0.5 mg/mL microsomes, presence of NADPH (1 mM)). Further, the “t1/2 of conversion to APA in liver microsomes” value in series [1] (1 µM, 0.5 mg/mL mouse liver microsomes) is over 1 h. In series [1] (mouse, pooled mouse liver microsomes, pH 7.4, as stated in abstract, read-out: t1/2 of degradation in mouse liver microsomes), the half-life at 1 µM is over 1 h. The “Accumulation of HIF-1α” value in the series on HIF-1α is reported as “inhibited”. The HIF-1α protein expression result in the series on HIF-1α (without affecting HIF-1β expression, via regulation of VHL) is “decreased”. Besides, the half-life at 5 µM in the series “Stability in mouse serum” (ICR, mouse serum, 5 µM, up to 6 h, read-out: t1/2 of degradation in serum) is over 6 h. Further, in “Stability in mouse serum” (LW6 5 µM), the “Conversion to APA in mouse serum (in words)” value is recorded as “converted slowly to APA”. In addition, the Papp at 120 min, 5 µM in “in vitro” (Caco-2, pH 7.4, Papp) turned out to be 2.1 ± 0.4 ×10⁻⁶ cm/s. In series [2], the “Stability in phosphate buffer” value is listed as “stable”. Moreover, the results for the “Time beyond which plasma level was below the quantitation limit” value in series [3] (after i.v. LW6 5 mg/kg) and in series [3] (after p.o. LW6 5 mg/kg) were 4 h and 1 h, respectively. Also, in series [3] (setting [5]), the half-life was 0.6 ± 0.1 h. For the same compound, in series [3] (mouse, plasma, 5 mg/kg, single i.v. dose of LW6 5 mg/kg, male ICR mice, read-out: Vss (volume of distribution at steady state)), the Vd came to 0.5 ± 0.1 L/kg. This compound also yielded a mean residence time MRT in series [3] (setting [6]) of 0.3 h. Moreover, the clearance in series [3] (mouse, plasma, single i.v. dose of LW6 5 mg/kg, male ICR mice, read-out: CL (systemic clearance) (converted)) was 28.3 mL/min/kg. Moreover, the bioavailability in series [3] (mouse, plasma, oral, LW6 5 mg/kg p.o. vs 5 mg/kg i.v., calculated using AUC0–t, male ICR mice, read-out: F (oral bioavailability)) was 1.7 ± 1.8%. The same compound came in with a peak concentration (Cmax) in series [3] (setting [7]) of 65.5 ± 47.3 ng/mL. Moreover, in series [3] (setting [8]), the Tmax is 0.3 ± 0.1 h. Further, in series [3] (oral vs intravenous, 5 mg/kg), the “Decrease of plasma exposure of LW6 when administered orally” value is “about 60 fold”. Moreover, the “AUC0–inf” value in series [3] (setting [9]) was 2957.1 ± 215.4 ng/h/mL. Further, the “AUC0–t” value in series [3] (setting [9]) was 2949.3 ± 218.4 ng/h/mL; in series [3] (setting [10]), 49.5 ± 52.5 ng/h/mL. In series [3] (single i.v. dose of LW6 5 mg/kg, male ICR mice), the Vz worked out at 1.6 ± 0.3 Lkg. Also, the “Permeability across Caco-2 cell monolayers (in words)” value in the series on Caco-2 cells was “moderately permeable”.
As for `O=C(O)COc1ccc(C23CC4CC(CC(C4)C2)C3)cc1` [APA, (4-adamantan-1-yl-phenoxy)acetic acid], the “APA depletion in mouse liver microsomes (in words)” value in series [1] (APA 1 µM, 0.5 mg/mL microsomes, presence of NADPH (1 mM)) is listed as “progressively decreased”. Further, the “Tumor growth inhibition relative to the control group” value in the series with HCT116 xenograft is “up to 43.3%”. Besides, the half-life is 2.7 ± 0.2 h in series [3] (setting [5]) and 2.4 ± 0.4 h in series [3] (mouse, plasma, 5 mg/kg, single i.v. dose of APA 5 mg/kg, male ICR mice, n = 5, read-out: t1/2 (converted)). For the same compound, the Vd in series [3] (mouse, plasma, 5 mg/kg, single i.v. dose of APA 5 mg/kg, male ICR mice, n = 5, read-out: Vss) came to 0.4 ± 0.1 L/kg; in series [3] (mouse, plasma, 5 mg/kg, single i.v. dose of APA 5 mg/kg, male ICR mice, n = 5, read-out: Vz), 0.5 ± 0.2 L/kg. In series [3] (setting [6]), this compound yielded an MRT of 3.6 ± 0.2 h. Further, the clearance in series [3] (mouse, plasma, single i.v. dose of APA 5 mg/kg, male ICR mice, n = 5, read-out: CL (converted)) was 1.67 mL/min/kg. Also, the highest concentration (Cmax) in series [3] (setting [7]) worked out at 4240 ± 1260 ng/mL. The time to peak (Tmax) in series [3] (setting [8]) was 0.7 ± 0.1 h. The “AUC0–inf” value in series [3] (setting [9]) is 17,759.9 ± 3194.1 ng/hr/mL; in series [3] (setting [10]) it was 14,744.8 ± 5517.4 ng/hr/mL; in series [3] (setting [11]), 39,624.7 ± 9502.30 ng/hr/mL. Further, the “AUC0–t” value was 17,731.4 ± 3190.5 ng/hr/mL in series [3] (setting [9]), 14,615.3 ± 5507.8 ng/hr/mL in series [3] (setting [10]) and 37,703.8 ± 10,162.9 ng/hr/mL in series [3] (setting [11]). In series [3] (setting [11]), the CL amounted to 1.7 ± 0 mL/min/kg.
With `COCCc1ccc(OCC(O)CNC(C)C)cc1` (stereo not shown) [Metoprolol, metoprolol], the apparent permeability coefficient (Papp) at 120 min, 5 µM is 35.3 ± 0.6 ×10⁻⁶ cm/s in “in vitro” (Caco-2, pH 7.4, Papp) and over 25 ×10⁻⁶ cm/s in “in vitro” (setting [4]).
